Columns and labels:
[1] = tested on: HL60 cells; assay: Anti-cancer activity test, MTT, HL60 cells; type: cell-based; conditions: Homo sapiens, HL-60, culturing for 72 hours
Method: (§1) Cell culture medium: Roswell medium RPMI-1640 (+L-glutamine) was added with 10% fetal bovine serum, with 100 units penicillin and 100 μg streptomycin per ml.
(§2) Cell culture conditions: 5% CO2, 95% humidity, cultured at 37° C. constant temperature.
(§3) 2. Cell Inoculation, Drugs Dosing and Culture.
(§4) Logarithmic growth phase HL-60, human chronic myeloid leukemia cells (K562), human esophageal squamous cell carcinoma cells (KYSE510), human large cell lung cancer cells (H460) were inoculated into 96-well cell culture plates, 2×10^4 cells per well. Different concentrations of active compounds (dissolved in dimethyl sulfoxide (DMSO) stock solution) were added, so that the final concentration of DMSO was 0.2%, and the control group was DMSO. Each group was repeated three times.
(§5) After culturing for 72 hours, 20 µL of thiazolyl blue (MTT) (5 mg/ml, ready for use, dissolved in 1×PBS for cell culture) was added to each well, and incubated at 37° C. for 3 hours.
(§6) The 96-well cell culture plates were centrifuged at 1000 rpm for 10 minutes. The supernatant was discarded; 200 μL of DMSO was added to each well and the plate was shaken for 5 minutes.
(§7) The absorbance of each well was detected at 570 nm wavelength with a microplate reader, and the IC50 of the compounds was calculated.

[2] = target: c-Myc370-412-biotin peptide (Homo sapiens (Human), UniProt P01106); assay: SPR binding affinity on c-Myc protein; conditions: c-Myc370-412-biotin peptide immobilized, 1.00×PBS-P buffer (5% DMSO)
Method: 1. Experiment Preparation
10×PBS-P was diluted into 1.05×PBS-P buffer solution for later use. The c-Myc370-412-biotin peptide was dissolved in chromatographic pure DMSO to prepare a 1 mM stock solution. The molecules were dissolved in chromatographic pure DMSO to prepare a 10 mM stock solution. Part of 1.05×PBS-P buffer was added to chromatographic pure DMSO to prepare 1.00×PBS-P buffer (5% DMSO, ready for use).
The highest solubility of each small molecule in the 1.00×PBS-P buffer (5% DMSO) system was tested respectively. This solubility was used as the highest concentration tested for small molecule activity.
2. Protein Immobilization
The c-Myc370-412-biotin peptide stock solution was added to 1.05×PBS-P buffer to prepare a 50 μM solution, and then diluted with 1.00×PBS-P buffer (5% DMSO) to […] for protein immobilization.
After washing the sample channel and reference channel of the chip with 1.00×PBS-P buffer (5% DMSO), an automatic mode was used to immobilize the protein in the sample channel. The target amount of the immobilized protein was 500RU. The immobilization was successful. The buffer was used continuously to flush until equilibrium.
3. Small Molecule Activity Test.
Buffer was used to prepare different concentrations of small molecule compounds for sample testing. The system was 1.00×PBS-P buffer (5% DMSO). The difference was detected between the response of small molecules flowing through the sample channel and the reference channel.
The experimental conditions were a flow rate of 30 μL/min, binding time of 120 seconds, and dissociation time of 240 seconds. After each binding and dissociation test, 50% DMSO was used to flush the tubing, and 10 mM glycine-HCl buffer (pH 2.1) was used to flush the surface of the chip to wash away the remaining compound molecules.

[3] = target: c-Myc and Max (Homo sapiens (Human), UniProt P01106); assay: Competition for the binding of c-Myc and Max
[4] = target: c-Myc protein (Homo sapiens (Human), UniProt P01106); assay: Degradation of c-Myc protein
[5] = tested on: tumor cells with high expression of c-Myc; assay: Inhibition of tumor cells with high expression of c-Myc; type: cell-based
[6] = tested on: human chronic myeloid leukemia cells (K562); assay: Anti-cancer activity test, MTT, K562 cells; type: cell-based; conditions: culturing for 72 hours
Method: as §1, §2, §3, §4, §5, §6, §7

[7] = tested on: human esophageal squamous cell carcinoma cells (KYSE510); assay: Anti-cancer activity test, MTT, KYSE510 cells; type: cell-based; conditions: KYSE-510, culturing for 72 hours
Method: as §1, §2, §3, §4, §5, §6, §7

[8] = tested on: human large cell lung cancer cells (H460); assay: Anti-cancer activity test, MTT, H460 cells; type: cell-based; conditions: NCI-H460, culturing for 72 hours
Method: as §1, §2, §3, §4, §5, §6, §7

[9] = target: c-Myc peptide LE40 (Homo sapiens, UniProt P01106); assay: Single-cycle binding kinetics with c-Myc peptide LE40
[10] = target: c-Myc peptide LE40 (S373A) (Homo sapiens, UniProt P01106, S373A); assay: Single-cycle binding kinetics with c-Myc peptide LE40 (S373A)

c-Myc370-412-biotin peptide, sequence (P01106 385-427): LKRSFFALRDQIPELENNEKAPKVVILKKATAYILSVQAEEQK
c-Myc protein, sequence (P01106 whole entry): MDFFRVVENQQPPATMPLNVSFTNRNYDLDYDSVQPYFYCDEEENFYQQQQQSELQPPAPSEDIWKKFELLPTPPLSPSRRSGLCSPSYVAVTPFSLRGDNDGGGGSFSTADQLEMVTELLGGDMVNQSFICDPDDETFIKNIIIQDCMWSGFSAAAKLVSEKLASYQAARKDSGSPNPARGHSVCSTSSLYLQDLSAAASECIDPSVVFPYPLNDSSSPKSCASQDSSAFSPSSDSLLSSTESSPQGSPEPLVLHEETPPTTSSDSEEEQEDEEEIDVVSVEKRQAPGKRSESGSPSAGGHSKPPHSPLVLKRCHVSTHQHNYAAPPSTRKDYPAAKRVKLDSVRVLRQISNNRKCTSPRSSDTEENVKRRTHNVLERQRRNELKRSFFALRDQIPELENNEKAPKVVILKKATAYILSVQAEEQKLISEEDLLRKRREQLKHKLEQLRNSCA
c-Myc and Max, sequence (P01106 whole entry): as above

| SMILES | IC50 [1] | Kd [2] | other results |
| --- | --- | --- | --- |
| CC(C)C[C@H](NC(=O)[C@@H](NC(=O)OCC1c2ccccc2-c2ccccc21)[C@@H](C)OC(C)(C)C)B1O[C@@H]2C[C@@H]3C[C@@H](C3(C)C)[C@]2(C)O1 [Compound A2] | < 100 nM | 100 to 500 nM |  |
| CC(C)C[C@H](NC(=O)[C@H](CCC(=O)OC(C)(C)C)NC(=O)OCC1c2ccccc2-c2ccccc21)B1O[C@@H]2C[C@@H]3C[C@@H](C3(C)C)[C@]2(C)O1 [Compound A7] | < 100 nM | < 100 nM |  |
| CC(C)C[C@H](NC(=O)[C@H](Cc1cn(C(c2ccccc2)(c2ccccc2)c2ccccc2)cn1)NC(=O)OCC1c2ccccc2-c2ccccc21)B1O[C@@H]2C[C@@H]3C[C@@H](C3(C)C)[C@]2(C)O1 [Compound A4] | < 100 nM | < 100 nM |  |
| CSCC[C@H](NC(=O)OCC1c2ccccc2-c2ccccc21)C(=O)N[C@@H](CC(C)C)B1O[C@@H]2C[C@@H]3C[C@@H](C3(C)C)[C@]2(C)O1 [Compound A5] | < 100 nM | 100 to 500 nM | Kd [9]: 160 nM; binding (single-cycle binding kinetic curve) [10]: no obvious binding; degradation of c-Myc protein [4]: promote the degradation of c-Myc protein |
| CC(C)C[C@H](NC(=O)[C@H](CCC(=O)NC(c1ccccc1)(c1ccccc1)c1ccccc1)NC(=O)OCC1c2ccccc2-c2ccccc21)B1O[C@@H]2C[C@@H]3C[C@@H](C3(C)C)[C@]2(C)O1 [Compound A6] | < 100 nM | < 100 nM |  |
| CC(C)C[C@H](NC(=O)[C@H](CC(C)C)NC(=O)OCC1c2ccccc2-c2ccccc21)B1O[C@@H]2C[C@@H]3C[C@@H](C3(C)C)[C@]2(C)O1 [Compound A10] | < 100 nM |  | IC50 [6]: < 100 nM; IC50 [7]: < 100 nM; IC50 [8]: < 100 nM |
| CC(C)C[C@H](NC(=O)[C@H](CSC(c1ccccc1)(c1ccccc1)c1ccccc1)NC(=O)OCC1c2ccccc2-c2ccccc21)B1O[C@@H]2C[C@@H]3C[C@@H](C3(C)C)[C@]2(C)O1 [Compound A3] | 500 to 2000 nM | 100 to 500 nM |  |

The next lines start with results.

| IC50 [1] | Kd [2] | SMILES | other results |
| --- | --- | --- | --- |
| < 100 nM |  | CC(C)C[C@H](NC(=O)[C@H](CCCCNC(=O)OC(C)(C)C)NC(=O)OCC1c2ccccc2-c2ccccc21)B1O[C@@H]2C[C@@H]3C[C@@H](C3(C)C)[C@]2(C)O1 [Compound A13] | competition for the binding of c-Myc and Max [3]: can compete for the binding of c-Myc and Max; degradation of c-Myc protein [4]: promote the degradation of c-Myc protein; selective inhibition of tumor cells with high expression of c-Myc [5]: selectively inhibits tumor cells with high expression of c-Myc |
| < 100 nM |  | CC(C)C[C@H](NC(=O)[C@H](Cc1c[nH]c2ccccc12)NC(=O)CC1CCCC1)B(O)O [Compound A69] | IC50 [6]: < 100 nM; IC50 [7]: < 100 nM; IC50 [8]: < 100 nM |
| < 100 nM |  | CC(C)C[C@H](NC(=O)[C@H](CC(C)C)NC(=O)CC1c2ccccc2-c2ccccc21)B(O)O [Compound A67] | IC50 [6]: < 100 nM; IC50 [7]: < 100 nM; IC50 [8]: < 100 nM |
| < 100 nM |  | CC(C)C[C@H](NC(=O)[C@H](Cc1cn(C(=O)OC(C)(C)C)c2ccccc12)NC(=O)C1CC2C=CC1C2)B1O[C@@H]2C[C@@H]3C[C@@H](C3(C)C)[C@]2(C)O1 (stereo partly drawn) [Compound A27] |  |
| 2000 to 10000 nM |  | CC(C)C[C@H](NC(=O)[C@H](C)NC(=O)c1cccc2c1C(=O)N(C1CCC(=O)NC1=O)C2=O)B(O)O (stereo partly drawn) [Compound A91] |  |
| 500 to 2000 nM |  | CC(C)C[C@H](NC(=O)[C@H](Cc1c[nH]c2ccccc12)NC(=O)c1ccncc1)B1O[C@@H]2C[C@@H]3C[C@@H](C3(C)C)[C@]2(C)O1 [Compound A33] |  |
| 500 to 2000 nM |  | CC(C)C[C@H](NC(=O)[C@H](CC(C)C)NC(=O)Cn1c2cc(Cl)ccc2c2ccc(Cl)cc21)B(O)O [Compound A100] |  |
| 500 to 2000 nM |  | CC(C)C[C@H](NC(=O)[C@H](CC(C)C)NC(=O)Cn1c2ccccc2c2cccnc21)B(O)O [Compound A94] |  |

Source: US12570673B2, “c-Myc protein inhibitor, and preparation method therefor and use thereof” (SUZHOU KINTOR PHARMACEUTICALS, INC., priority 2019, dated 2026)
